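Cultured in 96-well plates, cells were exposed to test compound for 48 hours across five concentrations. GI50 is the concentration that inhibits growth by half. At the TGI there is no net growth.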
What was measured:
Assay in all cases: NCI anticancer screen, dose series, 48 h
NCI-H226 lung = tested on: NCI-H226 lung
MDA-MB-435 = tested on: MDA-MB-435
A498 renal = tested on: A498 renal
A549 NSCLC = tested on: A549 NSCLC
CAKI-1 renal = tested on: CAKI-1 renal
SR leukemia = tested on: SR leukemia
HL-60(TB) leukemia = tested on: HL-60(TB) leukemia
MDA-MB-231 breast = tested on: MDA-MB-231 breast
MOLT-4 leukemia = tested on: MOLT-4 leukemia
LOX IMVI melanoma = tested on: LOX IMVI melanoma
RXF 393 renal = tested on: RXF 393 renal
SK-MEL-2 melanoma = tested on: SK-MEL-2 melanoma
UO-31 renal = tested on: UO-31 renal
SW-620 colon = tested on: SW-620 colon
HCT-116 colon = tested on: HCT-116 colon
NCI-H23 lung = tested on: NCI-H23 lung
OVCAR-3 ovarian = tested on: OVCAR-3 ovarian
T-47D breast = tested on: T-47D breast
SN12C renal = tested on: SN12C renal
RPMI-8226 leukemia = tested on: RPMI-8226 leukemia
SF-539 CNS = tested on: SF-539 CNS
SF-268 CNS = tested on: SF-268 CNS
HOP-92 NSCLC = tested on: HOP-92 NSCLC
SF-295 CNS = tested on: SF-295 CNS
OVCAR-8 ovarian = tested on: OVCAR-8 ovarian
UACC-62 melanoma = tested on: UACC-62 melanoma
M14 melanoma = tested on: M14 melanoma
DU-145 prostate = tested on: DU-145 prostate
HOP-62 NSCLC = tested on: HOP-62 NSCLC
UACC-257 melanoma = tested on: UACC-257 melanoma
KM12 colon = tested on: KM12 colon
U251 CNS = tested on: U251 CNS
HS 578T breast = tested on: HS 578T breast
SNB-75 CNS = tested on: SNB-75 CNS
NCI-H460 lung = tested on: NCI-H460 lung
OVCAR-5 ovarian = tested on: OVCAR-5 ovarian
IGROV1 ovarian = tested on: IGROV1 ovarian
SNB-19 CNS = tested on: SNB-19 CNS
TK-10 renal = tested on: TK-10 renal
SK-OV-3 ovarian = tested on: SK-OV-3 ovarian
K-562 leukemia = tested on: K-562 leukemia
HCC-2998 colon = tested on: HCC-2998 colon
786-0 renal = tested on: 786-0 renal
MCF7 breast = tested on: MCF7 breast
HT29 colon = tested on: HT29 colon
COLO 205 colon = tested on: COLO 205 colon
MALME-3M melanoma = tested on: MALME-3M melanoma
NCI-H522 lung = tested on: NCI-H522 lung
ACHN renal = tested on: ACHN renal
PC-3 prostate = tested on: PC-3 prostate
EKVX NSCLC = tested on: EKVX NSCLC
HCT-15 colon = tested on: HCT-15 colon
BT-549 breast = tested on: BT-549 breast
CCRF-CEM leukemia = tested on: CCRF-CEM leukemia
OVCAR-4 ovarian = tested on: OVCAR-4 ovarian
SK-MEL-28 melanoma = tested on: SK-MEL-28 melanoma
NCI/ADR-RES ovarian = tested on: NCI/ADR-RES ovarian
SK-MEL-5 melanoma = tested on: SK-MEL-5 melanoma

SMILES: COc1ccc(-n2c(=S)sc3c(Cl)nc(C)nc32)c(OC)c1
- GI50 (NCI-H226 lung): 3.22 µM
- TGI (NCI-H226 lung): 12 µM
- GI50 (MDA-MB-435): 2.14 µM
- TGI (MDA-MB-435): 3.93 µM
- GI50 (A498 renal): 11.5 µM
- TGI (A498 renal): 23.8 µM
- GI50 (A549 NSCLC): 4.45 µM
- TGI (A549 NSCLC): 15.8 µM
- GI50 (CAKI-1 renal): 6.16 µM
- TGI (CAKI-1 renal): 19.3 µM
- GI50 (SR leukemia): 1.42 µM
- TGI (SR leukemia): 5.52 µM
- GI50 (HL-60(TB) leukemia): 1.43 µM
- TGI (HL-60(TB) leukemia): 5.83 µM
- GI50 (MDA-MB-231 breast): 3.16 µM
- TGI (MDA-MB-231 breast): 10.3 µM
- GI50 (MOLT-4 leukemia): 2.12 µM
- TGI (MOLT-4 leukemia): 5.48 µM
- GI50 (LOX IMVI melanoma): 1.71 µM
- TGI (LOX IMVI melanoma): 3.19 µM
- GI50 (RXF 393 renal): 2 µM
- TGI (RXF 393 renal): 4.07 µM
- GI50 (SK-MEL-2 melanoma): 2.04 µM
- TGI (SK-MEL-2 melanoma): 3.97 µM
- GI50 (UO-31 renal): 3.62 µM
- TGI (UO-31 renal): 15.4 µM
- GI50 (SW-620 colon): 2.57 µM
- TGI (SW-620 colon): 5.44 µM
- GI50 (HCT-116 colon): 1.83 µM
- TGI (HCT-116 colon): 3.71 µM
- GI50 (NCI-H23 lung): 2.44 µM
- TGI (NCI-H23 lung): 5.87 µM
- GI50 (OVCAR-3 ovarian): 1.8 µM
- TGI (OVCAR-3 ovarian): 3.26 µM
- GI50 (T-47D breast): 6.42 µM
- TGI (T-47D breast): 21.6 µM
- GI50 (SN12C renal): 2.85 µM
- TGI (SN12C renal): 9.14 µM
- GI50 (RPMI-8226 leukemia): 3.45 µM
- TGI (RPMI-8226 leukemia): 14 µM
- GI50 (SF-539 CNS): 2.07 µM
- TGI (SF-539 CNS): 4.55 µM
- GI50 (SF-268 CNS): 2.17 µM
- TGI (SF-268 CNS): 5.21 µM
- GI50 (HOP-92 NSCLC): 2.06 µM
- TGI (HOP-92 NSCLC): 8.46 µM
- GI50 (SF-295 CNS): 7.06 µM
- TGI (SF-295 CNS): 20.1 µM
- GI50 (OVCAR-8 ovarian): 2.66 µM
- TGI (OVCAR-8 ovarian): 7.4 µM
- GI50 (UACC-62 melanoma): 2.06 µM
- TGI (UACC-62 melanoma): 4.69 µM
- GI50 (M14 melanoma): 1.84 µM
- TGI (M14 melanoma): 4.05 µM
- GI50 (DU-145 prostate): 1.84 µM
- TGI (DU-145 prostate): 3.25 µM
- GI50 (HOP-62 NSCLC): 2.57 µM
- TGI (HOP-62 NSCLC): 7.68 µM
- GI50 (UACC-257 melanoma): 2.35 µM
- TGI (UACC-257 melanoma): 5.62 µM
- GI50 (KM12 colon): 3.33 µM
- TGI (KM12 colon): 11.5 µM
- GI50 (U251 CNS): 1.91 µM
- TGI (U251 CNS): 3.65 µM
- GI50 (HS 578T breast): 2.66 µM
- TGI (HS 578T breast): 7.71 µM
- GI50 (SNB-75 CNS): 1.97 µM
- TGI (SNB-75 CNS): 4.26 µM
- GI50 (NCI-H460 lung): 3.12 µM
- TGI (NCI-H460 lung): 9.04 µM
- GI50 (OVCAR-5 ovarian): 6.15 µM
- TGI (OVCAR-5 ovarian): 20.9 µM
- GI50 (IGROV1 ovarian): 1.93 µM
- TGI (IGROV1 ovarian): 3.99 µM
- GI50 (SNB-19 CNS): 2.4 µM
- TGI (SNB-19 CNS): 5.42 µM
- GI50 (TK-10 renal): 4.66 µM
- TGI (TK-10 renal): 18.7 µM
- GI50 (SK-OV-3 ovarian): 14.3 µM
- TGI (SK-OV-3 ovarian): 27.3 µM
- GI50 (K-562 leukemia): 1.19 µM
- TGI (K-562 leukemia): 3.79 µM
- GI50 (HCC-2998 colon): 16.2 µM
- TGI (HCC-2998 colon): 31.1 µM
- GI50 (786-0 renal): 4.42 µM
- TGI (786-0 renal): 20.4 µM
- GI50 (MCF7 breast): 3.67 µM
- TGI (MCF7 breast): 15.6 µM
- GI50 (HT29 colon): 2.41 µM
- TGI (HT29 colon): 6.28 µM
- GI50 (COLO 205 colon): 3.83 µM
- TGI (COLO 205 colon): 13.3 µM
- GI50 (MALME-3M melanoma): 2.23 µM
- TGI (MALME-3M melanoma): 6.23 µM
- GI50 (NCI-H522 lung): 1.84 µM
- TGI (NCI-H522 lung): 3.89 µM
- GI50 (ACHN renal): 2.08 µM
- TGI (ACHN renal): 3.97 µM
- GI50 (PC-3 prostate): 2.37 µM
- TGI (PC-3 prostate): 5.91 µM
- GI50 (EKVX NSCLC): 4.55 µM
- TGI (EKVX NSCLC): 17 µM
- GI50 (HCT-15 colon): 1.96 µM
- TGI (HCT-15 colon): 5.43 µM
- GI50 (BT-549 breast): 1.99 µM
- TGI (BT-549 breast): 4.28 µM
- GI50 (CCRF-CEM leukemia): 2.66 µM
- TGI (CCRF-CEM leukemia): 7.45 µM
- GI50 (OVCAR-4 ovarian): 4.73 µM
- TGI (OVCAR-4 ovarian): 15.6 µM
- GI50 (SK-MEL-28 melanoma): 2.18 µM
- TGI (SK-MEL-28 melanoma): 4.6 µM
- GI50 (NCI/ADR-RES ovarian): 13.2 µM
- TGI (NCI/ADR-RES ovarian): 72.9 µM

SMILES: CCOC(=O)c1c(-c2ccc(OC)cc2)ccn1C
- TGI (NCI-H226 lung): > 10 µM
- TGI (MDA-MB-435): > 10 µM
- TGI (A549 NSCLC): > 10 µM
- TGI (CAKI-1 renal): > 10 µM
- TGI (SR leukemia): > 10 µM
- TGI (MDA-MB-231 breast): > 10 µM
- TGI (MOLT-4 leukemia): > 10 µM
- TGI (LOX IMVI melanoma): > 10 µM
- TGI (RXF 393 renal): > 10 µM
- TGI (SK-MEL-2 melanoma): > 10 µM
- TGI (UO-31 renal): > 10 µM
- TGI (SW-620 colon): > 10 µM
- TGI (HCT-116 colon): > 10 µM
- TGI (NCI-H23 lung): > 10 µM
- TGI (OVCAR-3 ovarian): > 10 µM
- TGI (SK-MEL-5 melanoma): > 10 µM
- TGI (T-47D breast): > 10 µM
- TGI (SN12C renal): > 10 µM
- TGI (SF-539 CNS): > 10 µM
- TGI (SF-268 CNS): > 10 µM
- TGI (HOP-92 NSCLC): > 10 µM
- TGI (SF-295 CNS): > 10 µM
- TGI (OVCAR-8 ovarian): > 10 µM
- TGI (UACC-62 melanoma): > 10 µM
- TGI (M14 melanoma): > 10 µM
- TGI (DU-145 prostate): > 10 µM
- TGI (HOP-62 NSCLC): > 10 µM
- TGI (UACC-257 melanoma): > 10 µM
- TGI (KM12 colon): > 10 µM
- TGI (U251 CNS): > 10 µM
- TGI (HS 578T breast): > 10 µM
- TGI (SNB-75 CNS): > 10 µM
- TGI (NCI-H460 lung): > 10 µM
- TGI (OVCAR-5 ovarian): > 10 µM
- TGI (IGROV1 ovarian): > 10 µM
- TGI (SNB-19 CNS): > 10 µM
- TGI (TK-10 renal): > 10 µM
- TGI (SK-OV-3 ovarian): > 10 µM
- TGI (K-562 leukemia): > 10 µM
- TGI (HCC-2998 colon): > 10 µM
- TGI (786-0 renal): > 10 µM
- TGI (MCF7 breast): > 10 µM
- TGI (HT29 colon): > 10 µM
- TGI (COLO 205 colon): > 10 µM
- TGI (MALME-3M melanoma): > 10 µM
- TGI (NCI-H522 lung): > 10 µM
- TGI (ACHN renal): > 10 µM
- TGI (PC-3 prostate): > 9.68 µM
- TGI (EKVX NSCLC): > 10 µM
- TGI (HCT-15 colon): > 10 µM
- TGI (BT-549 breast): > 10 µM
- TGI (CCRF-CEM leukemia): > 10 µM
- TGI (OVCAR-4 ovarian): > 10 µM
- TGI (SK-MEL-28 melanoma): > 10 µM
- TGI (NCI/ADR-RES ovarian): > 10 µM
